Source: ChEMBL document CHEMBL3525916, “Investigation of figopitant and its metabolites in rat tissue by combining whole-body autoradiography with liquid extraction surface analysis mass spectrometry” (Drug Metab Dispos, 2012)

Legend:
Parameters in all cases: dose 5 mg/kg, route intravenous
Conditions in all cases: in vivo
Rattus norvegicus [1] = assay: Biodistribution in albino Wistar Hannover rat muscle caudal at 5 mg/kg, iv after 4 hrs by autoradiography analysis; assay type: ADME, organism-based, Muscle tissue
Lung [2] = assay: Biodistribution in albino Wistar Hannover rat lung at 5 mg/kg, iv after 5 mins by autoradiography analysis; assay type: ADME, organism-based
Rattus norvegicus [3] = assay: Biodistribution in albino Wistar Hannover rat renal cortex at 5 mg/kg, iv after 4 hrs by autoradiography analysis; assay type: ADME, organism-based
Rattus norvegicus [4] = assay: Biodistribution in albino Wistar Hannover rat muscle cranial at 5 mg/kg, iv after 24 hrs by autoradiography analysis; assay type: ADME, organism-based, Muscle tissue
Rattus norvegicus [5] = assay: Biodistribution in albino Wistar Hannover rat epididymis at 5 mg/kg, iv after 24 hrs by autoradiography analysis; assay type: ADME, organism-based
[6] = Half life in albino Wistar Hannover rat salivary gland at 5 mg/kg, iv by autoradiography analysis; assay type: ADME, organism-based
Rattus norvegicus [7] = assay: Biodistribution in albino Wistar Hannover rat bone marrow at 5 mg/kg, iv after 4 hrs by autoradiography analysis; assay type: ADME, organism-based
Lung [8] = assay: Drug uptake in albino Wistar Hannover rat lung at 5 mg/kg, iv by LESA-MS analysis; assay type: ADME, organism-based
Liver [9] = assay: Half life in albino Wistar Hannover rat liver at 5 mg/kg, iv by autoradiography analysis; assay type: ADME, organism-based
Harderian gland [10] = assay: Biodistribution in albino Wistar Hannover rat harderian gland at 5 mg/kg, iv after 5 mins by autoradiography analysis; assay type: ADME, organism-based
Harderian gland [11] = assay: Biodistribution in albino Wistar Hannover rat harderian gland at 5 mg/kg, iv after 4 hrs by autoradiography analysis; assay type: ADME, organism-based
Rattus norvegicus [12] = assay: Biodistribution in albino Wistar Hannover rat testis at 5 mg/kg, iv after 4 hrs by autoradiography analysis; assay type: ADME, organism-based
Pancreas [13] = assay: Drug uptake in albino Wistar Hannover rat pancreas at 5 mg/kg, iv by LESA-MS analysis; assay type: ADME, organism-based
Blood = assay: Biodistribution in albino Wistar Hannover rat whole blood at 5 mg/kg, iv after 24 hrs by liquid scintillation counting; assay type: ADME, organism-based
[14] = Drug uptake in albino Wistar Hannover rat brown fat at 5 mg/kg, iv by LESA-MS analysis; assay type: ADME, organism-based, Brown adipose tissue
[15] = Half life in albino Wistar Hannover rat muscle caudal at 5 mg/kg, iv by autoradiography analysis; assay type: ADME, organism-based, Muscle tissue
[16] = Retention time in albino Wistar Hannover rat at 5 mg/kg, iv; assay type: ADME, organism-based
Rattus norvegicus [17] = assay: Biodistribution in albino Wistar Hannover rat muscle caudal at 5 mg/kg, iv after 5 mins by autoradiography analysis; assay type: ADME, organism-based, Muscle tissue
Rattus norvegicus [18] = assay: Biodistribution in albino Wistar Hannover rat muscle caudal at 5 mg/kg, iv after 24 hrs by autoradiography analysis; assay type: ADME, organism-based, Muscle tissue
Liver [19] = assay: Drug uptake in albino Wistar Hannover rat liver at 5 mg/kg, iv by LESA-MS analysis; assay type: ADME, organism-based
[20] = Half life in albino Wistar Hannover rat adipose tissue at 5 mg/kg, iv by autoradiography analysis; assay type: ADME, organism-based
Rattus norvegicus [21] = assay: Biodistribution in albino Wistar Hannover rat adipose tissue at 5 mg/kg, iv after 5 mins by autoradiography analysis; assay type: ADME, organism-based
Rattus norvegicus [22] = assay: Biodistribution in albino Wistar Hannover rat adrenal cortex at 5 mg/kg, iv after 24 hrs by autoradiography analysis; assay type: ADME, organism-based
Rattus norvegicus [23] = assay: Biodistribution in albino Wistar Hannover rat salivary gland at 5 mg/kg, iv after 5 mins by autoradiography analysis; assay type: ADME, organism-based
Rattus norvegicus [24] = assay: Biodistribution in albino Wistar Hannover rat testis at 5 mg/kg, iv after 24 hrs by autoradiography analysis; assay type: ADME, organism-based
Rattus norvegicus [25] = assay: Biodistribution in albino Wistar Hannover rat adrenal cortex at 5 mg/kg, iv after 5 mins by autoradiography analysis; assay type: ADME, organism-based
Stomach = assay: Drug uptake in albino Wistar Hannover rat stomach at 5 mg/kg, iv by LESA-MS analysis; assay type: ADME, organism-based
Rattus norvegicus [26] = assay: Biodistribution in albino Wistar Hannover rat tongue at 5 mg/kg, iv after 4 hrs by autoradiography analysis; assay type: ADME, organism-based
Brain = assay: Biodistribution in albino Wistar Hannover rat brain at 5 mg/kg, iv after 4 hrs by autoradiography analysis; assay type: ADME, organism-based
[27] = Half life in albino Wistar Hannover rat testis at 5 mg/kg, iv by autoradiography analysis; assay type: ADME, organism-based
Pituitary gland = assay: Biodistribution in albino Wistar Hannover rat pituitary at 5 mg/kg, iv after 5 mins by autoradiography analysis; assay type: ADME, organism-based
Rattus norvegicus [28] = assay: Biodistribution in albino Wistar Hannover rat renal cortex at 5 mg/kg, iv after 5 mins by autoradiography analysis; assay type: ADME, organism-based
Thymus = assay: Half life in albino Wistar Hannover rat thymus at 5 mg/kg, iv by autoradiography analysis; assay type: ADME, organism-based
Rattus norvegicus [29] = assay: Biodistribution in albino Wistar Hannover rat adrenal cortex at 5 mg/kg, iv after 4 hrs by autoradiography analysis; assay type: ADME, organism-based
Spleen [30] = assay: Drug uptake in albino Wistar Hannover rat spleen at 5 mg/kg, iv by LESA-MS analysis; assay type: ADME, organism-based
Spleen [31] = assay: Biodistribution in albino Wistar Hannover rat spleen at 5 mg/kg, iv after 4 hrs by autoradiography analysis; assay type: ADME, organism-based
Plasma [32] = assay: Biodistribution in albino Wistar Hannover rat plasma at 5 mg/kg, iv after 24 hrs by liquid scintillation counting; assay type: ADME, organism-based
Liver [33] = assay: Biodistribution in albino Wistar Hannover rat liver at 5 mg/kg, iv after 24 hrs by autoradiography analysis; assay type: ADME, organism-based
Pancreas [34] = assay: Biodistribution in albino Wistar Hannover rat pancreas at 5 mg/kg, iv after 4 hrs by autoradiography analysis; assay type: ADME, organism-based
Rattus norvegicus [35] = assay: Biodistribution in albino Wistar Hannover rat epididymis at 5 mg/kg, iv after 4 hrs by autoradiography analysis; assay type: ADME, organism-based
Zone of skin = assay: Biodistribution in albino Wistar Hannover rat skin at 5 mg/kg, iv after 24 hrs by autoradiography analysis; assay type: ADME, organism-based
[36] = Drug uptake in albino Wistar Hannover rat myocardium at 5 mg/kg, iv by LESA-MS analysis; assay type: ADME, organism-based
Plasma [37] = assay: Biodistribution in albino Wistar Hannover rat plasma at 5 mg/kg, iv after 5 mins by liquid scintillation counting; assay type: ADME, organism-based
Rattus norvegicus [38] = assay: Biodistribution in albino Wistar Hannover rat myocardium at 5 mg/kg, iv after 24 hrs by autoradiography analysis; assay type: ADME, organism-based
Rattus norvegicus [39] = assay: Biodistribution in albino Wistar Hannover rat tongue at 5 mg/kg, iv after 5 mins by autoradiography analysis; assay type: ADME, organism-based
Pancreas [40] = assay: Biodistribution in albino Wistar Hannover rat pancreas at 5 mg/kg, iv after 24 hrs by autoradiography analysis; assay type: ADME, organism-based
Plasma [41] = assay: Half life in albino Wistar Hannover rat plasma at 5 mg/kg, iv by liquid scintillation counting; assay type: ADME, organism-based
Rattus norvegicus [42] = assay: Biodistribution in albino Wistar Hannover rat testis at 5 mg/kg, iv after 5 mins by autoradiography analysis; assay type: ADME, organism-based
Spleen [43] = assay: Biodistribution in albino Wistar Hannover rat spleen at 5 mg/kg, iv after 5 mins by autoradiography analysis; assay type: ADME, organism-based
Rattus norvegicus [44] = assay: Biodistribution in albino Wistar Hannover rat salivary gland at 5 mg/kg, iv after 24 hrs by autoradiography analysis; assay type: ADME, organism-based
Muscle tissue = assay: Drug uptake in albino Wistar Hannover rat muscle at 5 mg/kg, iv by LESA-MS analysis; assay type: ADME, organism-based
Rattus norvegicus [45] = assay: Biodistribution in albino Wistar Hannover rat salivary gland at 5 mg/kg, iv after 4 hrs by autoradiography analysis; assay type: ADME, organism-based
Rattus norvegicus [46] = assay: Biodistribution in albino Wistar Hannover rat muscle cranial at 5 mg/kg, iv after 4 hrs by autoradiography analysis; assay type: ADME, organism-based, Muscle tissue

SMILES: CN(CCc1cc(C(F)(F)F)cc(C(F)(F)F)c1)C(=O)[C@H](c1ccccc1)N1CCN(CC2CC2)CC1.Cl.O
- Drug uptake (Rattus norvegicus [1]): 2606 ngequiv/g
- Drug uptake (Lung [2]): 24769 ngequiv/g
- Drug uptake (Rattus norvegicus [3]): 8020 ngequiv/g
- Drug uptake (Rattus norvegicus [4]): 671 ngequiv/g
- Drug uptake (Rattus norvegicus [5]): 1043 ngequiv/g
- t1/2 [6]: 20.3 h
- Drug uptake (Rattus norvegicus [7]): 3910 ngequiv/g
- Drug uptake (Lung [8]): 38.9%
- t1/2 (Liver [9]): 31.2 h
- Drug uptake (Harderian gland [10]): 4132 ngequiv/g
- Drug uptake (Harderian gland [11]): 13941 ngequiv/g
- Drug uptake (Rattus norvegicus [12]): 1510 ngequiv/g
- Drug uptake (Pancreas [13]): 23.7%
- Drug uptake (Blood): 122 ngequiv/g
- Drug uptake [14]: 47.1%
- t1/2 [15]: 19.7 h
- Retention time [16]: 0.358 h
- Drug uptake (Rattus norvegicus [17]): 6936 ngequiv/g
- Drug uptake (Rattus norvegicus [18]): 670 ngequiv/g
- Drug uptake (Liver [19]): 12.9%
- t1/2 [20]: 27.1 h
- Drug uptake (Rattus norvegicus [21]): 467 ngequiv/g
- Drug uptake (Rattus norvegicus [22]): 3447 ngequiv/g
- Drug uptake (Rattus norvegicus [23]): 10729 ngequiv/g
- Drug uptake (Rattus norvegicus [24]): 633 ngequiv/g
- Drug uptake (Rattus norvegicus [25]): 21006 ngequiv/g
- Drug uptake (Stomach): 34.6%
- Drug uptake (Rattus norvegicus [26]): 3786 ngequiv/g
- Drug uptake (Brain): 122 ngequiv/g
- t1/2 [27]: 95.6 h
- Drug uptake (Pituitary gland): 8110 ngequiv/g
- Drug uptake (Rattus norvegicus [28]): 19088 ngequiv/g
- t1/2 (Thymus): 22.7 h
- Drug uptake (Rattus norvegicus [29]): 11078 ngequiv/g
- Drug uptake (Spleen [30]): 30.9%
- Drug uptake (Spleen [31]): 10694 ngequiv/g
- Drug uptake (Plasma [32]): 80 ngequiv/g
- Drug uptake (Liver [33]): 4793 ngequiv/g
- Drug uptake (Pancreas [34]): 12820 ngequiv/g
- Drug uptake (Rattus norvegicus [35]): 2290 ngequiv/g
- Drug uptake (Zone of skin): 606 ngequiv/g
- Drug uptake [36]: 22.6%
- Drug uptake (Plasma [37]): 483 ngequiv/g
- Drug uptake (Rattus norvegicus [38]): 1207 ngequiv/g
- Drug uptake (Rattus norvegicus [39]): 12885 ngequiv/g
- Drug uptake (Pancreas [40]): 4138 ngequiv/g
- t1/2 (Plasma [41]): 21.9 h
- Drug uptake (Rattus norvegicus [42]): 938 ngequiv/g
- Drug uptake (Spleen [43]): 7308 ngequiv/g
- Drug uptake (Rattus norvegicus [44]): 1877 ngequiv/g
- Drug uptake (Muscle tissue): 36.5%
- Drug uptake (Rattus norvegicus [45]): 8238 ngequiv/g
- Drug uptake (Rattus norvegicus [46]): 2972 ngequiv/g
